From patent US12662479B2 (Foghorn Therapeutics Inc., priority 2020, dated 2026)

Assays:
HiBit-BRM fusion protein = target: T1, HiBit-BRM fusion protein (Homo sapiens, UniProt P51531); test: HiBiT-BRM cell-based degradation assay (Nano-Glo HiBiT Lytic Detection, 24 h); conditions: HeLa cells expressing HiBiT-BRM; for DC50: read-out: BRM HiBit Degradation IC50; for BRM HiBit Degradation Maximum measured: top dose 30 μM
T1 construct: expressed in transfected cells
Outline: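 Luminescence from reconstituted NanoBiT luciferase in lysed HeLa HiBiT-BRM cells served as the measure of remaining BRM after 24 h treatment. Compounds were tested from 30 μM final downward in 3-fold steps. DMSO and 2 μM of a standard BRM/BRG1 degrader defined the scale limits.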

[1] = target: T2, HiBit-BRG1 fusion protein (Homo sapiens, UniProt P51532); test: HiBiT-BRG1 cell-based degradation assay (Nano-Glo HiBiT Lytic Detection, 24 h); conditions: HeLa cells expressing HiBit-BRG1 and LgBit; for DC50: read-out: BRG1 HiBit Degradation IC50; for Dmax: HeLa, top dose 30 μM, read-out: BRG1 HiBit Degradation Maximum measured
T2 construct: expressed in transfected cells
T2 sequence (P51532 whole entry, the tested form may be a part): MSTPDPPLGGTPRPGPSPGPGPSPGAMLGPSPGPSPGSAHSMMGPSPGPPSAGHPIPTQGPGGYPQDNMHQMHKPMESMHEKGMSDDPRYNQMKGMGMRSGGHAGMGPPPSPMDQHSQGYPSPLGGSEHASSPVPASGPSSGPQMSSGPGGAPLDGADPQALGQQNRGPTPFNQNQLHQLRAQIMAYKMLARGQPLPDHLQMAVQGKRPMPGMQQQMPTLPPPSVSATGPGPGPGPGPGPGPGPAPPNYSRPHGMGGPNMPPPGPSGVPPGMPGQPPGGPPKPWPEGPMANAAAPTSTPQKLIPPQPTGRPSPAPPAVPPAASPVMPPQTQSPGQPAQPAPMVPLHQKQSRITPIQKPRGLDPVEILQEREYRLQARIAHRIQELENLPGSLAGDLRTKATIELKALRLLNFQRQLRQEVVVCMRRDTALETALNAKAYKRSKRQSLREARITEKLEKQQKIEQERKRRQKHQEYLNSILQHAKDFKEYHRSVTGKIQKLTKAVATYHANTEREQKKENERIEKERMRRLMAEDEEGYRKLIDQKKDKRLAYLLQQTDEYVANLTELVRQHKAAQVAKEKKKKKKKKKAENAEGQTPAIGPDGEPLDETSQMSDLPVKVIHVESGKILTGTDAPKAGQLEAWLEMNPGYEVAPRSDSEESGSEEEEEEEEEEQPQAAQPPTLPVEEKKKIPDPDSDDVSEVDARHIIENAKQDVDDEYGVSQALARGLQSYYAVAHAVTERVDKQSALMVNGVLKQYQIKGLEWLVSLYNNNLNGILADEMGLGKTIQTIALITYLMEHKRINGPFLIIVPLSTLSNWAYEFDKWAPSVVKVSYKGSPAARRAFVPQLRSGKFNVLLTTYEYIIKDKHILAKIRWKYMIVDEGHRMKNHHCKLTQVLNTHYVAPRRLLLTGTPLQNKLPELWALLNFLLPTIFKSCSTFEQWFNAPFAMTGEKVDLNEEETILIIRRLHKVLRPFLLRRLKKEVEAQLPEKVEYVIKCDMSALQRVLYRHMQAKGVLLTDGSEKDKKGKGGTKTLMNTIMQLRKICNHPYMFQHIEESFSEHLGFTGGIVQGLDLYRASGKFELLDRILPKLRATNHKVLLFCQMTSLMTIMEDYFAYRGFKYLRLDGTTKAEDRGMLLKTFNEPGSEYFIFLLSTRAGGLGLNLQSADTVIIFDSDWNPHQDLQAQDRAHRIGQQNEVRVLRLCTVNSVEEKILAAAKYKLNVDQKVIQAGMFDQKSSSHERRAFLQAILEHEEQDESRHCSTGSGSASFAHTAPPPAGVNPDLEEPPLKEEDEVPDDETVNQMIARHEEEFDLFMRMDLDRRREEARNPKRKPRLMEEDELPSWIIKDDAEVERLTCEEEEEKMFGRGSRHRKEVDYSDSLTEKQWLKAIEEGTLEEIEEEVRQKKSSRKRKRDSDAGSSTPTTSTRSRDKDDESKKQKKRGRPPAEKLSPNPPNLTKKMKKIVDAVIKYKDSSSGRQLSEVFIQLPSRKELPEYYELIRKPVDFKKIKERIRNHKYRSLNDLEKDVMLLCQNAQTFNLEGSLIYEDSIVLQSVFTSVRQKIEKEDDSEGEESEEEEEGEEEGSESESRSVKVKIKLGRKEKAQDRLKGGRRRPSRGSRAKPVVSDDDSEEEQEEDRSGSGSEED
Outline: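 Stable HeLa line expressing HiBiT-BRG1 and LgBiT, seeded at 5000 cells/well; luminescence read after lytic Nano-Glo HiBiT reagent and 10 min shaking at RT. % degradation normalised between DMSO (high control) and 2 μM reference BRM/BRG1 degrader (low control).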

T1 sequence (P51531 whole entry, the tested form may be a part): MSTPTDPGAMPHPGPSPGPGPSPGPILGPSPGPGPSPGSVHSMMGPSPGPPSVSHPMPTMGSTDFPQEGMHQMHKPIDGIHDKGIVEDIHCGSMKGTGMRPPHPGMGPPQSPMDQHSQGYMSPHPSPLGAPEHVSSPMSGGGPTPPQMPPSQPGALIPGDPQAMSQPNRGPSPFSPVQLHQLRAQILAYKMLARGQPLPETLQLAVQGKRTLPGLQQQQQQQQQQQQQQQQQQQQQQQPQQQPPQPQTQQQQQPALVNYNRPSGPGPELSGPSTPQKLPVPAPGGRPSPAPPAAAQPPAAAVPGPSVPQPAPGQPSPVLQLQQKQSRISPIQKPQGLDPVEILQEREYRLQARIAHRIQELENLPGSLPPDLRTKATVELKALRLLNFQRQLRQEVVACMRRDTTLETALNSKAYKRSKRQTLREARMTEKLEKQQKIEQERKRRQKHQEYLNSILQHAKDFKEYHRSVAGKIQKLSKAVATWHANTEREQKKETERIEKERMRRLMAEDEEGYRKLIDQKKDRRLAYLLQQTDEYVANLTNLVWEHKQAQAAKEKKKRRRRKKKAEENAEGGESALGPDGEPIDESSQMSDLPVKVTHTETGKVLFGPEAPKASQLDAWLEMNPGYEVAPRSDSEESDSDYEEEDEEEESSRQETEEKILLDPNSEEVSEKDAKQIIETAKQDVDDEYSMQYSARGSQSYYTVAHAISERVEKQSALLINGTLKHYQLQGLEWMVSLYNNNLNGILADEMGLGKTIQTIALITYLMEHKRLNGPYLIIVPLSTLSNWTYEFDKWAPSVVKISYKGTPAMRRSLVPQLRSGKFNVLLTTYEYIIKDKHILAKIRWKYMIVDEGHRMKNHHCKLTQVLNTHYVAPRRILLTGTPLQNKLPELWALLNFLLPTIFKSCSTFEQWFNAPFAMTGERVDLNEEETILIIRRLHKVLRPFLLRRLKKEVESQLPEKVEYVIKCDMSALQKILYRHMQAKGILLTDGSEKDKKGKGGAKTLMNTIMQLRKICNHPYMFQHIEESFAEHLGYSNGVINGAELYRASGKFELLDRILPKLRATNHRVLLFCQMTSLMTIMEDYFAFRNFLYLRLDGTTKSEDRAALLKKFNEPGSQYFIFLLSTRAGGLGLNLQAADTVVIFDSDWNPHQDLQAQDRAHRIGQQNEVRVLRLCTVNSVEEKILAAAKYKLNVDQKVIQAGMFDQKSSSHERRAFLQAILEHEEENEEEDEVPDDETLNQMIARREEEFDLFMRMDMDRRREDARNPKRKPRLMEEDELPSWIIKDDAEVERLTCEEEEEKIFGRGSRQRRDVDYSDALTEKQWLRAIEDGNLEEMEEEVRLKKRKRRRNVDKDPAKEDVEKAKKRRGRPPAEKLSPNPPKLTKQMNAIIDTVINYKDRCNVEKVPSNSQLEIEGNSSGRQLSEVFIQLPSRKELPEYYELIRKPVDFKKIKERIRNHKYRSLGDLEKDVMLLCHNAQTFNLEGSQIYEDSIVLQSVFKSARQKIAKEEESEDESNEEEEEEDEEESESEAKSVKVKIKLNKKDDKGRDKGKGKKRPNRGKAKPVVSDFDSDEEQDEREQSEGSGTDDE

Row | Compound | DC50 (HiBit-BRM fusion protein) | BRM HiBit Degradation Maximum measured (HiBit-BRM fusion protein) | DC50 [1] | Dmax [1]
1 | CN1C(=O)CCC(N2C(=O)c3cccc(OCC(=O)NCCCCCCCCNC(=O)C4(c5cc(-c6cccc(-c7csc(NC(=O)CNC(=O)c8ccn(S(C)(=O)=O)c8)n7)c6)ccn5)CC4)c3C2=O)C1=O (centres unmarked) [Compound 129, N-[2-[[4-[3-[2-[1-[8-[[2-[2-(1-methyl-2,6-dioxo-3-piperidyl)-1,3-dioxo-isoindolin-4-yl]oxyacetyl]amino]octylcarbamoyl]cyclopropyl]-4-pyridyl]phenyl]thiazol-2-yl]amino]-2-oxo-ethyl]-1-methylsulfonyl-pyrrole-3-carboxamide] | > 10000 nM | C (‘C’ = Maximum degradation <50%) | > 10 µM | < 50%
2 | Cc1cc(C(=O)NCC(=O)Nc2nc(-c3cccc(-c4ccnc(N(C)CC(=O)N5CCC(C6CCN(C(=O)COc7cccc8c7C(=O)N(C7CCC(=O)NC7=O)C8=O)CC6)CC5)c4)c3)cs2)cn1S(C)(=O)=O (centres unmarked) [Compound 130, N-[2-[[4-[3-[2-[[2-[4-[1-[2-[2-(2,6-dioxo-3-piperidyl)-1,3-dioxo-isoindolin-4-yl]oxyacetyl]-4-piperidyl]-1-piperidyl]-2-oxo-ethyl]-methyl-amino]-4-pyridyl]phenyl]thiazol-2-yl]amino]-2-oxo-ethyl]-5-methyl-1-methylsulfonyl-pyrrole-3-carboxamide] | > 10000 nM | C (‘C’ = Maximum degradation <50%) | > 10 µM | < 50%
3 | Cc1cc(C(=O)NCC(=O)Nc2nc(-c3cccc(-c4ccnc(N(C)CC(=O)NCCCCCCCCNC(=O)COc5cccc6c5C(=O)N(C5CCC(=O)NC5=O)C6=O)c4)c3)cs2)cn1S(C)(=O)=O (centres unmarked) [Compound 131, N-(2-((4-(3-(2-((2-((8-(2-((2-(2,6-dioxopiperidin-3-yl)-1,3-dioxoisoindolin-4-yl)oxy)acetamido)octyl)amino)-2-oxoethyl)(methyl)amino)pyridin-4-yl)phenyl)thiazol-2-yl)amino)-2-oxoethyl)-5-methyl-1-(methylsulfonyl)-1H-pyrrole-3-carboxamide] | > 10000 nM | C (‘C’ = Maximum degradation <50%) | > 10 µM | < 50%
4 | CS(=O)(=O)n1ccc(C(=O)NCC(=O)Nc2nc(-c3cccc(-c4ccnc(C5(C(=O)NCCNc6ccc7c(c6)C(=O)N(C6CCC(=O)NC6=O)C7=O)CC5)c4)c3)cs2)c1 (centres unmarked) [Compound 133, N-(2-[[2-(2,6-dioxopiperidin-3-yl)-1,3-dioxoisoindol-5-yl]amino]ethyl)-1-[4-[3-(2-[2-[(1-methanesulfonylpyrrol-3-yl)formamido]acetamido]-1,3-thiazol-4-yl)phenyl]pyridin-2-yl]cyclopropane-1-carboxamide] | 100 to 1000 nM | B (‘B’ = Maximum degradation ≥50% and ≤75%) | < 0.1 µM | > 75%
5 | CS(=O)(=O)n1ccc(C(=O)NCC(=O)Nc2nc(-c3cccc(-c4ccnc(C5(C(=O)N6CCN(CC7CCN(c8ccc9c(c8)C(=O)N(C8CCC(=O)NC8=O)C9=O)CC7)CC6)CC5)c4)c3)cs2)c1 (centres unmarked) [Compound 134, N-[4-[3-(2-[1-[4-([1-[2-(2,6-dioxopiperidin-3-yl)-1,3-dioxoisoindol-5-yl]piperidin-4-yl]methyl)piperazine-1-carbonyl]cyclopropyl]pyridin-4-yl)phenyl]-1,3-thiazol-2-yl]-2-[(1-methanesulfonylpyrrol-3-yl)formamido]acetamide] | 100 to 1000 nM | A (‘A’ = Maximum degradation >75%) | < 0.1 µM | > 75%
6 | CS(=O)(=O)n1ccc(C(=O)NCC(=O)Nc2nc(-c3cccc(-c4ccnc(C5(C(=O)N6CCN(CCCOc7ccc8c(c7)C(=O)N(C7CCC(=O)NC7=O)C8=O)CC6)CC5)c4)c3)cs2)c1 (centres unmarked) [Compound 135, N-[4-[3-(2-[1-[4-(3-[[2-(2,6-dioxopiperidin-3-yl)-1,3-dioxoisoindol-5-yl]oxy]propyl)piperazine-1-carbonyl]cyclopropyl]pyridin-4-yl)phenyl]-1,3-thiazol-2-yl]-2-[(1-methanesulfonylpyrrol-3-yl)formamido]acetamide] | 100 to 1000 nM | B (‘B’ = Maximum degradation ≥50% and ≤75%) | 0.1 to 1 µM | > 75%
7 | Cc1ncsc1-c1ccc(CNC(=O)[C@@H]2C[C@@H](O)CN2C(=O)[C@@H](NC(=O)C2CC3(CC(C(=O)NCc4cccc(-c5cccc(-c6csc(NC(=O)CNC(=O)c7ccn(S(C)(=O)=O)c7)n6)c5)c4)C3)C2)C(C)(C)C)cc1 (stereo partly drawn) [Compound 137, N2-[(2S)-1-[(2S,4R)-4-hydroxy-2-([[4-(4-methyl-1,3-thiazol-5-yl)phenyl]methyl]carbamoyl)pyrrolidin-1-yl]-3,3-dimethyl-1-oxobutan-2-yl]-N6-[[3′-(2-[2-[(1-methanesulfonylpyrrol-3-yl)formamido]acetamido]-1,3-thiazol-4-yl)-[1,1′-biphenyl]-3-yl]methyl]spiro[3.3]heptane-2,6-dicarboxamide] | > 10000 nM | C (‘C’ = Maximum degradation <50%) | > 10 µM | < 50%
8 | Cc1ncsc1-c1ccc(CNC(=O)[C@@H]2C[C@@H](O)CN2C(=O)[C@@H](NC(=O)CN2CCC(C(=O)NCc3cccc(-c4cccc(-c5csc(NC(=O)CNC(=O)c6ccn(S(C)(=O)=O)c6)n5)c4)c3)CC2)C(C)(C)C)cc1 [Compound 138, 1-([[(2S)-1-[(2S,4R)-4-hydroxy-2-([[4-(4-methyl-1,3-thiazol-5-yl)phenyl]methyl]carbamoyl)pyrrolidin-1-yl]-3,3-dimethyl-1-oxobutan-2-yl]carbamoyl]methyl)-N-[[3-(2-[2-[(1-methanesulfonylpyrrol-3-yl)formamido]acetamido]-1,3-thiazol-4-yl)-[1,1-biphenyl]-3-yl]methyl]piperidine-4-carboxamide] | 1000 to 10000 nM | B (‘B’ = Maximum degradation ≥50% and ≤75%) | 1 to 10 µM | 50 to 75%
9 | CS(=O)(=O)n1ccc(C(=O)NCC(=O)Nc2nc(-c3cccc(-c4ccnc(C5(C(=O)NC6CCN(CCCCOc7ccc8c(c7)C(=O)N(C7CCC(=O)NC7=O)C8=O)CC6)CC5)c4)c3)cs2)c1 (centres unmarked) [Compound 140, N-[1-(4-[[2-(2,6-dioxopiperidin-3-yl)-1,3-dioxoisoindol-5-yl]oxy]butyl)piperidin-4-yl]-1-[4-[3-(2-[2-[(1-methanesulfonylpyrrol-3-yl)formamido]acetamido]-1,3-thiazol-4-yl)phenyl]pyridin-2-yl]cyclopropane-1-carboxamide] | 100 to 1000 nM | A (‘A’ = Maximum degradation >75%) | 0.1 to 1 µM | > 75%
10 | CS(=O)(=O)n1ccc(C(=O)NCC(=O)Nc2nc(-c3cccc(-c4ccnc(C5(C(=O)N6CC(Oc7ccc8c(c7)C(=O)N(C7CCC(=O)NC7=O)C8=O)C6)CC5)c4)c3)cs2)c1 (centres unmarked) [Compound 141, N-[4-(3-[2-[1-(3-[[2-(2,6-dioxopiperidin-3-yl)-1,3-dioxoisoindol-5-yl]oxy]azetidine-1-carbonyl)cyclopropyl]pyridin-4-yl]phenyl)-1,3-thiazol-2-yl]-2-[(1-methanesulfonylpyrrol-3-yl)formamido]acetamide] | 100 to 1000 nM | B (‘B’ = Maximum degradation ≥50% and ≤75%) | > 10 µM | < 50%
11 | Cc1ncsc1-c1ccc(CNC(=O)[C@@H]2C[C@@H](O)CN2C(=O)[C@@H](NC(=O)CCCCCCC(=O)NCc2cc(-c3cccc(-c4csc(NC(=O)CNC(=O)c5ccn(S(C)(=O)=O)c5)n4)c3)ccn2)C(C)(C)C)cc1 [Compound 142] | > 10000 nM | C (‘C’ = Maximum degradation <50%) | > 10 µM | < 50%
12 | CS(=O)(=O)n1ccc(C(=O)NCC(=O)Nc2nc(C3CCCN(C(=O)CCCCCCCCCCNc4ccc5c(c4)C(=O)N(C4CCC(=O)NC4=O)C5=O)C3)cs2)c1 (centres unmarked) [Compound 143, N-{4-[1-(11-{[2-(2,6-dioxopiperidin-3-yl)-1,3-dioxo-2,3-dihydro-1H-isoindol-5-yl]amino}undecanoyl)piperidin-3-yl]-1,3-thiazol-2-yl}-2-[(1-methanesulfonyl-1H-pyrrol-3-yl)formamido]acetamide] | > 10000 nM | C (‘C’ = Maximum degradation <50%) | > 10 µM | < 50%

Results, then the compound that gave them:

Row | DC50 (HiBit-BRM fusion protein) | BRM HiBit Degradation Maximum measured (HiBit-BRM fusion protein) | DC50 [1] | Dmax [1] | Compound
13 | > 10000 nM | C (‘C’ = Maximum degradation <50%) | > 10 µM | < 50% | CS(=O)(=O)n1ccc(C(=O)NCC(=O)Nc2nc(-c3cccc(-c4ccnc(C5(C(=O)N6CCN(c7ccc8c(c7)C(=O)N(C7CCC(=O)NC7=O)C8=O)CC6)CC5)c4)c3)cs2)c1 (centres unmarked) [Compound 132, N-(4-[3-[2-(1-[4-[2-(2,6-dioxopiperidin-3-yl)-1,3-dioxoisoindol-5-yl]piperazine-1-carbonyl]cyclopropyl)pyridin-4-yl]phenyl]-1,3-thiazol-2-yl)-2-[(1-methanesulfonylpyrrol-3-yl)formamido]acetamide]
14 | > 10000 nM | C (‘C’ = Maximum degradation <50%) | > 10 µM | < 50% | CS(=O)(=O)n1ccc(C(=O)NCC(=O)Nc2nc(-c3cccc(-c4ccnc(C5(C(=O)N6CC(CCOc7cccc8c7C(=O)N(C7CCC(=O)NC7=O)C8=O)C6)CC5)c4)c3)cs2)c1 (centres unmarked) [Compound 136, N-[4-[3-(2-[1-[3-(2-[[2-(2,6-dioxopiperidin-3-yl)-1,3-dioxoisoindol-4-yl]oxy]ethyl)azetidine-1-carbonyl]cyclopropyl]pyridin-4-yl)phenyl]-1,3-thiazol-2-yl]-2-[(1-methanesulfonylpyrrol-3-yl)formamido]acetamide]
